According to PubChem BioAssay AID504381 (The Scripps Research Institute Molecular Screening Center, 2011):
The source made the active and inactive calls. No rule for the calls is given here.

Tests used:
Experiment in all cases: radioligand displacement at receptors and transporters – biochemical, PDSP panel, Set 2, late-stage follow-up (AID 504381)
[1] = test system: Biogenic amine transporter NET; settings: PDSP radioligand binding panel, at 10 µM, active compounds read high
Dopamine receptor D4 = settings: PDSP radioligand binding panel, at 10 µM, active compounds read high
[2] = biological target: Muscarinic acetylcholine receptor M1 (Homo sapiens) (UniProt P11229); settings: PDSP radioligand binding panel, at 10 µM, active compounds read high
Muscarinic acetylcholine receptor M1 (Homo sapiens), sequence (P11229 whole entry, looked up): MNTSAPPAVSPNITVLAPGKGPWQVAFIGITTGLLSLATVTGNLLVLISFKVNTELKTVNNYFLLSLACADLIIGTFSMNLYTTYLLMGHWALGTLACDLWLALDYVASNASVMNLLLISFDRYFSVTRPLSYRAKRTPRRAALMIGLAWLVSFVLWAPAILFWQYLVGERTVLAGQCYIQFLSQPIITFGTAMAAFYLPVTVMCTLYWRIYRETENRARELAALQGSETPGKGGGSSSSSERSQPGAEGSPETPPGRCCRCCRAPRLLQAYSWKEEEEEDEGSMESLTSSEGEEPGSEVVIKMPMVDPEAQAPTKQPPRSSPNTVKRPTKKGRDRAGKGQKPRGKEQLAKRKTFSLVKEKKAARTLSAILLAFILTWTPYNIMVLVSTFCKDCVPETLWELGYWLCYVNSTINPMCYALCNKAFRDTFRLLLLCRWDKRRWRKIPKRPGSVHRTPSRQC

[3] = test system: Adrenergic receptor Alpha1D; settings: PDSP radioligand binding panel, at 10 µM, active compounds read high
[4] = test system: Biogenic amine transporter SERT; settings: PDSP radioligand binding panel, at 10 µM, active compounds read high
[5] = test system: Adrenergic receptor Alpha1B; settings: PDSP radioligand binding panel, at 10 µM, active compounds read high
Serotonin receptor 5ht7 = settings: PDSP radioligand binding panel, at 10 µM, active compounds read high
Dopamine receptor D2 = settings: PDSP radioligand binding panel, at 10 µM, active compounds read high
[6] = biological target: Kappa-type opioid receptor (Homo sapiens) (UniProt P41145); settings: PDSP radioligand binding panel, Opioid receptor KOR, at 10 µM, active compounds read high
Kappa-type opioid receptor (Homo sapiens), sequence (P41145 whole entry, looked up): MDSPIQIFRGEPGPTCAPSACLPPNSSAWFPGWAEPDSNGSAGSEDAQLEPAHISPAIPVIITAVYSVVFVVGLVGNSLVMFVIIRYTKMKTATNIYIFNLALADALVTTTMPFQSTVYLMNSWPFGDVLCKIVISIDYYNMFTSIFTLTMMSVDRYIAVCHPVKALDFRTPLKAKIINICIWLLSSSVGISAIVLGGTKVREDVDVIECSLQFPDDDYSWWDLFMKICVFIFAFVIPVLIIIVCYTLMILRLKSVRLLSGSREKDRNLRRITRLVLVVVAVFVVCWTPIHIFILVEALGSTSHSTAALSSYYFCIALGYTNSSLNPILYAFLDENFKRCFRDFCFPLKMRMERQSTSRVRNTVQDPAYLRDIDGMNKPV

[7] = test system: Adrenergic receptor Beta3; settings: PDSP radioligand binding panel, at 10 µM, active compounds read high
[8] = biological target: D(1B) dopamine receptor (Homo sapiens) (UniProt P21918); settings: PDSP radioligand binding panel, Dopamine receptor D5, at 10 µM, active compounds read high
D(1B) dopamine receptor (Homo sapiens), sequence (P21918 whole entry, looked up): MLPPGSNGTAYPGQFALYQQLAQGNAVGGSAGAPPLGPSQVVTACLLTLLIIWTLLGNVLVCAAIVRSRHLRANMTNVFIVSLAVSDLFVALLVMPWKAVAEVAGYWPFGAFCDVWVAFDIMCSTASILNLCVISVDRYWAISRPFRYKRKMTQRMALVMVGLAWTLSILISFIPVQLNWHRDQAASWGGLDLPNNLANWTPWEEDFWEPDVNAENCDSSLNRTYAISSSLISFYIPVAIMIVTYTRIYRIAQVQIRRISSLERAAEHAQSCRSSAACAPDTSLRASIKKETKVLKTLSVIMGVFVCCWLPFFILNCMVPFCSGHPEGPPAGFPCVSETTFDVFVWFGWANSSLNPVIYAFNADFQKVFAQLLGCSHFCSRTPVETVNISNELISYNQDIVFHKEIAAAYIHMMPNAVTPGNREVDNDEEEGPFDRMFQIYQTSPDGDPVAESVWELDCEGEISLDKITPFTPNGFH

Opioid receptor MOR = settings: PDSP radioligand binding panel, at 10 µM, active compounds read high
Histamine receptor H2 = settings: PDSP radioligand binding panel, at 10 µM, active compounds read high
[9] = biological target: 5-hydroxytryptamine receptor 2B (Homo sapiens) (UniProt P41595); settings: PDSP radioligand binding panel, Serotonin receptor 5ht2b, at 10 µM, active compounds read high
5-hydroxytryptamine receptor 2B (Homo sapiens), sequence (P41595 whole entry, looked up): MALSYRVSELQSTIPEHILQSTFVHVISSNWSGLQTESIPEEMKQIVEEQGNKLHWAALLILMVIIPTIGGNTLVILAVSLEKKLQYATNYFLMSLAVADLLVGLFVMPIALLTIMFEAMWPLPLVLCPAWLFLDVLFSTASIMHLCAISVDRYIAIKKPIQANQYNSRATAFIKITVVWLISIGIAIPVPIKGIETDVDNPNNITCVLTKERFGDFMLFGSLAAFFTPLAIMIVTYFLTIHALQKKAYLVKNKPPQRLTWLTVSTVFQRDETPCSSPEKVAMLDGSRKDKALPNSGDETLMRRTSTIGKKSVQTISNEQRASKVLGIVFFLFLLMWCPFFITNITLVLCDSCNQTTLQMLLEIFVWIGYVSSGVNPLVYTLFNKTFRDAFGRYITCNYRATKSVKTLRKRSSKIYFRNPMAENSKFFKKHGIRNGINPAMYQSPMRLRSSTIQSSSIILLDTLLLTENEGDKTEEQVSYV

[10] = biological target: D(3) dopamine receptor (Homo sapiens) (UniProt P35462); settings: PDSP radioligand binding panel, Dopamine receptor D3, at 10 µM, active compounds read high
D(3) dopamine receptor (Homo sapiens), sequence (P35462 whole entry, looked up): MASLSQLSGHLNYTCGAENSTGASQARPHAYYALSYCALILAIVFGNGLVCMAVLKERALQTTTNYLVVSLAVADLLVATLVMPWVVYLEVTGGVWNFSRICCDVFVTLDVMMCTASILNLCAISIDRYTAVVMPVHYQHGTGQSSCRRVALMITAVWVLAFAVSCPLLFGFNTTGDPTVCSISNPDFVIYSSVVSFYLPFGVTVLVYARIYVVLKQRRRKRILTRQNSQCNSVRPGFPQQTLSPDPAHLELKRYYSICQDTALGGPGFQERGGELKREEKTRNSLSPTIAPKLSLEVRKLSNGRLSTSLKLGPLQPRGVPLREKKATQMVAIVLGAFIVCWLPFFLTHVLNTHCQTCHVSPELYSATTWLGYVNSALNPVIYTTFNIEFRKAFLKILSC

Serotonin receptor 5ht1a = settings: PDSP radioligand binding panel, at 10 µM, active compounds read high
Muscarinic receptor M5 = settings: PDSP radioligand binding panel, at 10 µM, active compounds read high
[11] = biological target: Delta-type opioid receptor (Homo sapiens) (UniProt P41143); settings: PDSP radioligand binding panel, Opioid receptor DOR, at 10 µM, active compounds read high
Delta-type opioid receptor (Homo sapiens), sequence (P41143 whole entry, looked up): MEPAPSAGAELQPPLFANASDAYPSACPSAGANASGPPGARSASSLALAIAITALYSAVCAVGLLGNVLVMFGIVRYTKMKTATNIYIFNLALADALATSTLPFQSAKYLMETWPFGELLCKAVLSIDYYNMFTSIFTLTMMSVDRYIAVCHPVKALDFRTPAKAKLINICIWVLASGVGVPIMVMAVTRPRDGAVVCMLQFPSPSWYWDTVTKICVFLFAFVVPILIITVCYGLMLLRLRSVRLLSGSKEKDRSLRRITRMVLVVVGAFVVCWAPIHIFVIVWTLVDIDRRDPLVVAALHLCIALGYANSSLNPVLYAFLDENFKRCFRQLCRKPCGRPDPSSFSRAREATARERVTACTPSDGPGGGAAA

[12] = test system: Biogenic amine transporter DAT; settings: PDSP radioligand binding panel, at 10 µM, active compounds read high
Serotonin receptor 5ht2c = settings: PDSP radioligand binding panel, at 10 µM, active compounds read high
Serotonin receptor 5ht1d = settings: PDSP radioligand binding panel, at 10 µM, active compounds read high
[13] = biological target: Beta-2 adrenergic receptor (Homo sapiens) (UniProt P07550); settings: PDSP radioligand binding panel, Adrenergic receptor Beta2, at 10 µM, active compounds read high
Beta-2 adrenergic receptor (Homo sapiens), sequence (P07550 whole entry, looked up): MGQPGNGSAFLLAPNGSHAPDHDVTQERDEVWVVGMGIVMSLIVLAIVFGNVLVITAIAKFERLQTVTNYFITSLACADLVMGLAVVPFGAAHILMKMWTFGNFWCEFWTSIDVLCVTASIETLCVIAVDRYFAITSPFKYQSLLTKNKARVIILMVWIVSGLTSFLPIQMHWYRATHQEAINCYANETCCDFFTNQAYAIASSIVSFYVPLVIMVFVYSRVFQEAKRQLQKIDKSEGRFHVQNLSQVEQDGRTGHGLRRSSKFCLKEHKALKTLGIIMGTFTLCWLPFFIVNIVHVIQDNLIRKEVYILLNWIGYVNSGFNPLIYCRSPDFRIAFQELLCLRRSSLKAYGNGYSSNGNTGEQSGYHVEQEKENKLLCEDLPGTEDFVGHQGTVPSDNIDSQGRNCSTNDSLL

Serotonin receptor 5ht3 = settings: PDSP radioligand binding panel, at 10 µM, active compounds read high
Serotonin receptor 5ht6 = settings: PDSP radioligand binding panel, at 10 µM, active compounds read high
Sigma receptor 1 = settings: PDSP radioligand binding panel, at 10 µM, active compounds read high
Serotonin receptor 5ht5a = settings: PDSP radioligand binding panel, at 10 µM, active compounds read high
[14] = test system: Adrenergic receptor Alpha1A; settings: PDSP radioligand binding panel, at 10 µM, active compounds read high
[15] = biological target: Muscarinic acetylcholine receptor M2 (Homo sapiens) (UniProt P08172); settings: PDSP radioligand binding panel, at 10 µM, active compounds read high
Muscarinic acetylcholine receptor M2 (Homo sapiens), sequence (P08172 whole entry, looked up): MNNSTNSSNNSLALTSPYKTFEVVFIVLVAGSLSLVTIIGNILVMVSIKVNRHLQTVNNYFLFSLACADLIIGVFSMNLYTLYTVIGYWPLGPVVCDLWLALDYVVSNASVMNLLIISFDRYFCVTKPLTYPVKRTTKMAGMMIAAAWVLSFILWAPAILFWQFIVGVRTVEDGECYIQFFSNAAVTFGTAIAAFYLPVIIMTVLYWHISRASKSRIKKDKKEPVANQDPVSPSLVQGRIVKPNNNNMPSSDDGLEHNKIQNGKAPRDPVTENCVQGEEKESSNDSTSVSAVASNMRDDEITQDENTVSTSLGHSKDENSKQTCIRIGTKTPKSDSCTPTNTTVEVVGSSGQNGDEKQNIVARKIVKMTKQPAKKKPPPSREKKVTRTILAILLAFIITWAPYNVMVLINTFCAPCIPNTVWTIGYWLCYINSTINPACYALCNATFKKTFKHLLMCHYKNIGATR

[16] = biological target: Muscarinic acetylcholine receptor M3 (Homo sapiens) (UniProt P20309); settings: PDSP radioligand binding panel, at 10 µM, active compounds read high
Muscarinic acetylcholine receptor M3 (Homo sapiens), sequence (P20309 whole entry, looked up): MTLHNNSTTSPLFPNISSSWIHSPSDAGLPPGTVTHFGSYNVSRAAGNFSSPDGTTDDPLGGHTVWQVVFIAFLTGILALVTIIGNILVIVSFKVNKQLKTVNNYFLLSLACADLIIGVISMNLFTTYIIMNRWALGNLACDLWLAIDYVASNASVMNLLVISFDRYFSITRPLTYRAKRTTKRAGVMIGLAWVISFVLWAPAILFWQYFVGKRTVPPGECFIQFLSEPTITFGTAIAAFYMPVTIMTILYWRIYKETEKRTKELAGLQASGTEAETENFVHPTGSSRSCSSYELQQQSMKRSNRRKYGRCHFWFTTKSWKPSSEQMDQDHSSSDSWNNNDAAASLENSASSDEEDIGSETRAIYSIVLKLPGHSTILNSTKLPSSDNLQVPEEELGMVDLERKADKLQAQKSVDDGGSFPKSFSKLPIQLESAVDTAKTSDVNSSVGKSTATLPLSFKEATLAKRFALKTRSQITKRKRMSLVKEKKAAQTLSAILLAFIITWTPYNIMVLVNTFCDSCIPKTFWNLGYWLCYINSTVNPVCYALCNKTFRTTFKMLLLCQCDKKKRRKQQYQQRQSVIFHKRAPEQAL

[17] = test system: Adrenergic receptor Beta1; settings: PDSP radioligand binding panel, at 10 µM, active compounds read high
[18] = biological target: D(1A) dopamine receptor (Homo sapiens) (UniProt P21728); settings: PDSP radioligand binding panel, Dopamine receptor D1, at 10 µM, active compounds read high
D(1A) dopamine receptor (Homo sapiens), sequence (P21728 whole entry, looked up): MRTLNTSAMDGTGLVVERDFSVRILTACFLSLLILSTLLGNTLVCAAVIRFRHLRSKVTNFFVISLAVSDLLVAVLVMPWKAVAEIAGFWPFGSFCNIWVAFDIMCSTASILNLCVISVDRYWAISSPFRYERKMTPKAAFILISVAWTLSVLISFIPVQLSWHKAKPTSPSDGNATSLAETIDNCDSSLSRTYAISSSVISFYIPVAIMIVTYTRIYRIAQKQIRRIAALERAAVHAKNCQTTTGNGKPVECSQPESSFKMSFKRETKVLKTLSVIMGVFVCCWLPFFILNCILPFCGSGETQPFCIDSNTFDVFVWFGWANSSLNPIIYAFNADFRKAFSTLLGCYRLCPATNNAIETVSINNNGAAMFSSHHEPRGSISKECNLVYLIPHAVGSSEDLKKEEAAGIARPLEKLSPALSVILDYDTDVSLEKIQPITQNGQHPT

Serotonin receptor 5ht1b = settings: PDSP radioligand binding panel, at 10 µM, active compounds read high
Serotonin receptor 5ht2a = settings: PDSP radioligand binding panel, at 10 µM, active compounds read high
Histamine receptor H4 = settings: PDSP radioligand binding panel, at 10 µM, active compounds read high
Muscarinic receptor M4 = settings: PDSP radioligand binding panel, at 10 µM, active compounds read high
Histamine receptor H1 = settings: PDSP radioligand binding panel, at 10 µM, active compounds read high
Histamine receptor H3 = settings: PDSP radioligand binding panel, at 10 µM, active compounds read high
Serotonin receptor 5ht1e = settings: PDSP radioligand binding panel, at 10 µM, active compounds read high
GABA receptor GABAa = settings: PDSP radioligand binding panel, at 10 µM, active compounds read high

Measured: inhibition

CC(=O)c1ccc2c(c1)Nc1ccccc1S2
active: [6] 102% | [9] 78.9% | [10] 97.3%
inactive: [1] 74.1% | Dopamine receptor D4 0.9% | [2] -14.2% | [3] 17.9% | [4] 8.8% | [5] 9% | Serotonin receptor 5ht7 -19% | Dopamine receptor D2 -1.5% | [7] -13.9% | [8] 38.7% | Opioid receptor MOR 16.6% | Histamine receptor H2 9.9% | Serotonin receptor 5ht1a 21.4% | Muscarinic receptor M5 10.5% | [11] 0.8% | [12] 29.1% | Serotonin receptor 5ht2c 31.5% | Serotonin receptor 5ht1d 15.3% | [13] 11.4% | Serotonin receptor 5ht3 7.8% | Serotonin receptor 5ht6 3.5% | Sigma receptor 1 6.3% | Serotonin receptor 5ht5a -7.7% | [14] -2.9% | [15] -6.7% | [16] -0.4% | [17] 2.6% | [18] 13.9% | Serotonin receptor 5ht1b 5.8% | Serotonin receptor 5ht2a 0.5% | Histamine receptor H4 -16% | Muscarinic receptor M4 -9.4% | Histamine receptor H1 35.7% | Histamine receptor H3 4% | Serotonin receptor 5ht1e -36.5% | GABA receptor GABAa 28.7%
